Molecules are shown by their SMILES.

One may read the Kd as the constant that tells how readily two partners part at equilibrium.

The test deals with protein disulfide isomerase (PDI, PDIA1) (Homo sapiens, UniProt P07237). Put plainly: surface plasmon resonance. Format: binding. (Surface plasmon resonance follows binding to a sensor surface in real time, without labels.)
protein disulfide isomerase (PDI, PDIA1), sequence (P07237 18-508): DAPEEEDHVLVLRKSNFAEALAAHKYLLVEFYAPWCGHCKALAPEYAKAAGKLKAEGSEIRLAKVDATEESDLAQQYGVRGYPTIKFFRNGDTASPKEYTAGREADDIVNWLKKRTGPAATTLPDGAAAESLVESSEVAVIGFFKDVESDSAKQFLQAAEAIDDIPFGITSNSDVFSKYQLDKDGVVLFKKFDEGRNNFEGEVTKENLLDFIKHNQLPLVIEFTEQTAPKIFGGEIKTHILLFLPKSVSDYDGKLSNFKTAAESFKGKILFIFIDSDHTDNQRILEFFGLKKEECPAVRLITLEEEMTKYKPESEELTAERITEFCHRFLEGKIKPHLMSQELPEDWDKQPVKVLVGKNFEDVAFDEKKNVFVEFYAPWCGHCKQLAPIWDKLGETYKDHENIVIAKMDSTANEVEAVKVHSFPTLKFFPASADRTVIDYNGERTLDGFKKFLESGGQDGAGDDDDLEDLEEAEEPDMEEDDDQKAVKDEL

In turn, `Cc1c(-c2ccc(O)cc2)n(Cc2ccc(OCCN3CCCCCC3)cc2)c2ccc(O)cc12` [BAZ, bazedoxifene] returned a dissociation constant (Kd) of 3.3 nM. That is a single-digit nanomolar value.
